Assay results as given in patent US10064922B2, “Compositions and methods for immune tolerance induction” (The Research Foundation for The State University of New York, priority 2011, dated 2018).

Tested on: HA mice
Test: Antigen specificity: ovalbumin given concomitantly with FVIII or FVIII-PS/PC at a distant site
Format: in vivo
Details: ovalbumin concomitantly administered at a distant anatomical site; ±SEM
Source text: During the reverse vaccination strategy, it is desirable that the immunization should not interfere with the ability of the immune system to mount immune response against other antigens and pathogens. In order to investigate the antigen specificity and effect of immunization on the systemic immune suppression, another foreign antigen; ovalbumin (Ova) was concomitantly administered with either FVIII or FVIII-PS/PC complexes, but at a distant anatomical site.

Ova: ovalbumin, another foreign antigen given concomitantly at a distant anatomical site
Anti-FVIII Nab titers: no anti-FVIII Nabs
